SMILES strings stand for the structures.

This note sets out measurements from patent US8629164B2, “Inhibitors of NF-κB” (Profectus Biosciences, Inc., priority 2009, dated 2014).

For experiment [1], the system named is IL-6 release from RAW264.7 cells. Kind of experiment: IL-6 release from LPS stimulated RAW264.7 cells. It counts as cell-based, mouse. The settings on record: for EC50: Mus musculus, RAW264.7, RAW 264.7 cells. The protocol:
Specifically, A and B show the effects of the compound of Example 1 on soluble PGE2 and Il-6 secretion from RAW264.7 cells stimulated by 1 μg/mL of LPS. The cells were treated with the indicated concentrations of the compound of Example 1 for 2 hours, and then LPS was added and incubation continued for 4 hours. […]

Experiment [2] has as its system NF-κB. Kind of experiment: 293-cell pNF-κB-luc reporter assay, TNF-α induced. Type of experiment: cell-based. Particulars: for EC50: HEK293 cells, NF-κB driven luciferase expression, read-out: 293/NFkB-luc EC50. The essentials: (§1)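 HEK293 cells with stably integrated NF-κB reporters, pNF-κB-luc (3 elements) or pTRH1-NF-κB-dscGFP (4 elements). Cells pretreated 2 h with 0–40 μM compound, then stimulated with 20 ng/ml TNF-α for 18 h; luminescence or fluorescence read. Activity referenced to 0.5% DMSO control; median of three independent experiments.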

Experiment [3] concerns NF-κB. Kind of experiment: 293-cell pTRH1-NF-κB-dscGFP reporter assay, TNF-α induced. It counts as cell-based. The settings on record: for EC50: Homo sapiens, HEK293, HEK293 cells, NF-κB driven GFP expression, read-out: NF-kB/293/GFP EC50. In short, it runs like this: as §1
Another experiment concerns the target T1, p50 (Homo sapiens, UniProt P19838).
T1 sequence (P19838 1-433 limits assumed): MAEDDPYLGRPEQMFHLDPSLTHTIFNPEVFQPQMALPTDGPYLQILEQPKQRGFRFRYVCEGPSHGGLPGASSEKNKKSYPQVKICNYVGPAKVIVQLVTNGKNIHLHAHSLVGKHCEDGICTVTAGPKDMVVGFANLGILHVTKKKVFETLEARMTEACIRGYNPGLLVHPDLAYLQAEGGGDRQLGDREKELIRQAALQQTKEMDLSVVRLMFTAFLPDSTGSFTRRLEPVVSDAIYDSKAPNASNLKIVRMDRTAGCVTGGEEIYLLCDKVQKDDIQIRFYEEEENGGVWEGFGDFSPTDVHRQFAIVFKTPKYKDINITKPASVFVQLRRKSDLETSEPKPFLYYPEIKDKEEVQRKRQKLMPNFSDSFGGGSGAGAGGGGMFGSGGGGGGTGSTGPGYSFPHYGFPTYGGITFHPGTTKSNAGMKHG
Kind of experiment: TransAM NF-κB Family DNA Binding ELISA, p50. The settings on record: p50 binding IC50 (uM), cells without % sign.

Another experiment concerns the target T2, p52 (Homo sapiens, UniProt Q00653).
T2 sequence (Q00653 1-454 limits assumed): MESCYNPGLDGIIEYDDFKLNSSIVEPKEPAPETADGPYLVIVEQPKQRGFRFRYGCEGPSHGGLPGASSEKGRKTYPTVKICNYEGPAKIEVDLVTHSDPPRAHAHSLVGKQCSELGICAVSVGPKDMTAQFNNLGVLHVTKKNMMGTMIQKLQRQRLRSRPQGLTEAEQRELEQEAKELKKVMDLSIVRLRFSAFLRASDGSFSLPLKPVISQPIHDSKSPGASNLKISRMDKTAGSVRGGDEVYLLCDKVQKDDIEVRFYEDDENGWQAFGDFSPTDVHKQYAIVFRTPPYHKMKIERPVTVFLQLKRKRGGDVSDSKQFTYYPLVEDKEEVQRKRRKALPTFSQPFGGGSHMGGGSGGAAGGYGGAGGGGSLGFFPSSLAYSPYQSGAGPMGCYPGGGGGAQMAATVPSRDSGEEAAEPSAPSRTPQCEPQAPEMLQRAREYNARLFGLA
Kind of experiment: TransAM NF-κB Family DNA Binding ELISA, p52. Particulars: p52 binding IC50 (uM), cells without % sign. In general terms: ELISA stands for enzyme-linked immunosorbent assay.

Experiment [4] concerns PGE2 release from RAW264.7 cells. Kind of experiment: PGE2 release from LPS stimulated RAW264.7 cells. The settings on record: for EC50: Mus musculus, RAW264.7, RAW 264.7 cells. Type of experiment: cell-based, mouse. The protocol:
Specifically, A and B show the effects of the compound of Example 1 on soluble PGE2 and Il-6 secretion from RAW264.7 cells stimulated by 1 μg/mL of LPS. The cells were treated with the indicated concentrations of the compound of Example 1 for 2 hours, and then LPS was added and incubation continued for 4 hours.
LPS stimulation induces the expression of COX-2 the enzyme responsible for prostaglandin E2.

In the next experiment the target is T3, RelB (Homo sapiens, UniProt Q01201).
T3 sequence (Q01201 1-579): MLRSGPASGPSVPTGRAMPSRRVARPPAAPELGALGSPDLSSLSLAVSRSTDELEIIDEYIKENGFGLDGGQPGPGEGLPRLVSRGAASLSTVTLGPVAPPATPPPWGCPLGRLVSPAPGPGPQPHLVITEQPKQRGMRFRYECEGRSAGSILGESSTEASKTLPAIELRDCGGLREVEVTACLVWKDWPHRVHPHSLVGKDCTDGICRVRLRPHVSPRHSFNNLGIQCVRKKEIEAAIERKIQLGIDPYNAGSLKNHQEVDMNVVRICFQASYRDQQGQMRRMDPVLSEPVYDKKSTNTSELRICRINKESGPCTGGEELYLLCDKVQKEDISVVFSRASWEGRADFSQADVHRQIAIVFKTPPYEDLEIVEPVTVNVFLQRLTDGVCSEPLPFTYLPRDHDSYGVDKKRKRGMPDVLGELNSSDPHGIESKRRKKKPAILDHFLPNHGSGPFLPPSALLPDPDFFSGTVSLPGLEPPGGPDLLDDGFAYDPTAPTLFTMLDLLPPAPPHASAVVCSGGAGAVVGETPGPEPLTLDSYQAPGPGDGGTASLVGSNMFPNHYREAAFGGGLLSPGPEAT
T3 sequence (Q00653 1-454 partner limits assumed): T2 sequence (Q00653 1-454 limits assumed)
Kind of experiment: TransAM NF-κB Family DNA Binding ELISA, RelB.

The mark [5] stands for this setting: RelB binding IC50 (uM), cells without % sign.

Description for RelB: (§2) Treated samples were then transferred to 30 μL Complete Binding Buffer (with DTT) in microplate wells pre-coated with the NF-κB consensus oligonucleotide. […] The plate was incubated for 1 hour at room temperature with gentle shaking and then washed 3 times with 200 μL 1× Wash Buffer. NF-κB p65, p50, p52, RelB, or c-Rel subunits bound to the plate were detected with 100 μL of the primary antibody (diluted 1:1000 in 1× Antibody Buffer) specific for that subunit. The plate was incubated for 1 hour at room temperature and then washed 3 times with 200 μL 1× Wash Buffer. Next, 100 μL of a HRP conjugated goat anti-rabbit antibody (diluted 1:1,000 in 1× Antibody Buffer) was added to each well. The plate was incubated for 1 hour at room temperature and then washed 4 times with 200 μL 1× Wash Buffer. 100 μL of room temperature Developing Solution was added to each well. The reaction was allowed to develop for 2-10 minutes until a medium dark blue color developed (depending on the subunit activity in the lot of extract or lot of recombinant protein used) and then the reaction was stopped with 100 μL Stop Solution yielding a yellow color. Absorbance was recorded using a Becton-Dickinson DTX 880 Multimode Detector at 450 nm with a reference wavelength subtracted at 620 nm.
Description for p50: as §2

As usually defined, the IC50 is the midpoint of a concentration-inhibition curve. For `O=C(NC1=CC(=O)C2OC2C1O)c1cc2ccccc2nc1O` (racemic) [Example 2, (±)-2-hydroxy-N-(2-hydroxy-5-oxo-7-oxabicyclo[4.1.0]hept-3-en-3-yl)quinoline-3-carboxamide], the EC50 in experiment [1] came to 0.24 µM; with NF-κB [2] it was 4.1 µM; in the experiment on NF-κB [3], 0.21 µM; in experiment [4], 1.8 µM. The IC50 at p50 is 2.1 µM; on p52, 6 µM; on RelB (setting [5]), 2 µM; on RelB (RelB binding to DNA IC50, FIG. 8, non-canonical pathway), around 2 µM.
Regarding `O=C(NC1=CC(=O)C2OC2C1O)c1cccnc1O` (racemic) [Example 1, (±)-2-hydroxy-N-(2-hydroxy-5-oxo-7-oxabicyclo[4.1.0]hept-3-en-3-yl)nicotinamide], the “inhibition of IL-6” value in experiment [1] (LPS stimulated RAW264.7, FIG. 5B) is given as “inhibited in a dose dependent manor”. Also, the EC50 in experiment [1] was 6.5 µM; in the experiment with NF-κB [2] it was 6.2 µM; with NF-κB [3] it was 6.2 µM; in experiment [4], 6.9 µM. Also, the IC50 in the experiment with NF-κB [2] (2 hours pre-treatment, 20 ng/ml TNF-α 18 hours, median of three experiments ± standard error, read-out: median IC50, expression of the luciferase gene) stood at 16.2 ± 1.1 µM; with NF-κB [3] (2 hours pre-treatment, 20 ng/ml TNF-α 18 hours, median of three experiments ± standard error, read-out: median IC50, expression of the Green fluorescent protein gene), 6.2 ± 0.5 µM; on p50 it was 26 µM; at p52, 13 µM; on RelB (setting [5]), 7.4 µM. For the same molecule, the “decrease in downstream PGE2 synthesis” value in experiment [4] (LPS stimulated, FIG. 5A) is “dose dependent”.
